Assay results: patent US7928114B2, “Crystalline erlotinib” (Synthon BV, priority 2006, dated 2011)
Entries after “also recorded” stand apart in the source; their conditions may differ. Structures can show the parent of a compound that is named as a salt.

How the values were obtained:
[1] = WO 01/34574, WO 2004/072049; cited from earlier work
[2] = WO 2004/072049 (Form E vs Form B), WO 99/55683 (mesylate vs hydrochloride); cited from earlier work
[3] = XRPD under non-ambient conditions (humidity / elevated temperature); type: physicochemical; conditions: 30° C./10-90% RH and 50° C./75% RH
[4] = Relative thermodynamic stability of erlotinib free base crystal forms (prolonged stirring in 2-propanol; transitions on heating); type: physicochemical; conditions: recrystallization from 2-propanol with prolonged stirring; Forms I and III convert to Form II on heating
Text: Recrystallization from 2-propanol may initially give Form II with a small amount of another Form. However, prolonged stirring results in pure Form II.
The hydrates of the invention can be converted into anhydrous forms and vice versa. For instance, any of the hydrates provides for the erlotinib free base Form II by heating.
The transition of hydrate Form I into Form II proceeds via melting of Form I after which the melt recrystallizes to Form II. The transition of Form III into Form II occurs via the solid-solid transformation.

TGA hygroscopicity = type: physicochemical
Text: TGA confirmed that Form II can be considered non-hygroscopic.

## C#Cc1cccc(Nc2ncnc3cc(OCCOC)c(OCCOC)cc23)c1 [Form B, erlotinib hydrochloride]
[1]
  stability relative to other erlotinib hydrochloride polymorphs: thermodynamically more stable than Form A

## C#Cc1cccc(Nc2ncnc3cc(OCCOC)c(OCCOC)cc23)c1 [Form E, erlotinib hydrochloride]
[2]
  solubility relative to comparator form/salt: higher solubility

## C#Cc1cccc(Nc2ncnc3cc(OCCOC)c(OCCOC)cc23)c1 [Form II, [6,7-bis(2-methoxyethoxy)-quinazolin-4-yl]-(3-ethynylphenyl)amine]
[3]
  polymorphic transitions under humid conditions at elevated temperatures: does not undergo polymorphic transitions
[4]
  thermodynamic stability relative to other free base forms: thermodynamically more stable Form; also recorded: thermodynamically most stable form
TGA hygroscopicity
  hygroscopicity: non-hygroscopic

## erlotinib mesylate [mesylate salt of erlotinib]
[2]
  solubility relative to comparator form/salt: enhanced solubility compared to the hydrochloride
